Data from PubChem BioAssay (NCI).
Where “and” joins values, the source holds several entries; their conditions need not be identical. Equal values may be shown once.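 The compound was tested at five concentrations on cells cultured in 96-well plates, with a 48-hour exposure period. Here, GI50 denotes the concentration required for 50% inhibition of growth. TGI denotes the concentration required for complete inhibition of growth.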

These compounds were tested on DU-145 prostate (assay: growth of human tumour cells (NCI), 48 h).
O=C(Cc1ccc(F)c(Cl)c1)Nc1cc(C2(C(F)(F)F)CC2)nn1CC1CCCCC1 gave a GI50 of 5.39 µM and a TGI greater than 15 µM. Work on N#Cc1nn(-c2cc(=O)[nH]c3ccc(Cl)cc23)c(N)c1C#N yielded a GI50 greater than 100 µM and a TGI greater than 100 µM. NC(N)=NCCCC(=O)O showed a TGI greater than 100 µM. Compound CCN1CCN(c2cc(C)c3cc(NC(=O)c4ccc(OC)c(OC)c4)ccc3n2)CC1 has a GI50 greater than 60.6 µM and a TGI greater than 100 µM. Compound COC(=O)c1c2c(c(C)[n+]([O-])c1C)C(=O)C=C(NCc1ccc(F)cc1)C2=O has a GI50 of 1.15 µM and a TGI of 2.4 µM. In the case of CCCC(=O)Nc1cn(COC)c(C(=O)N2C[C@@H]3C[C@]34C2=CC(=O)c2[nH]cc(C)c24)n1, the GI50 is reported as 3.99 µM and the TGI is reported as 12.7 µM and > 100 µM. Work on CNCCOC(=O)/C=C1\CC[C@H]2[C@@H]([C@@H](O)C(=O)[C@@H]3[C@]2(C)CC[C@H](O)[C@]3(C)C(=O)OC)[C@H]1C yielded a GI50 of 0.188 µM and a TGI of 0.371 µM. Compound Cc1nnc(Nc2ccc(NC(=O)Nc3ccc(Cl)cc3)cc2)c2ccccc12 has a GI50 of 4.77 µM and a TGI of 19.5 µM. Compound CC(=O)ON1CCCC(P(=O)(OCCSC(=O)C(C)(C)C)OCCSC(=O)C(C)(C)C)C1=O (stereo not given) has a GI50 of 3.08 µM and a TGI greater than 100 µM. Work on C=CCC1(c2ccc(OC)cc2)C=CC(=O)CC1 (stereo not given) yielded a TGI greater than 100 µM. In the case of COC(=O)[C@]12CC[C@@H](C)[C@H](C)[C@@H]1C1=CC[C@@H]3[C@@]4(C)C[C@@H](O)[C@H](O)[C@@](C)(CO)C4=CC[C@@]3(C)[C@]1(C)CC2, the GI50 is reported as 16.3 µM and the TGI is reported as 32.6 µM. Cc1nc(N)sc1N=Nc1ccccc1Br showed a TGI of 58.5 µM. With NS(=O)(=O)c1ccc(N=Nc2c(O)c(C(=O)O)cc3ccccc23)cc1 the TGI was greater than 100 µM. For Cc1c(N(C)C)ccc2c(=O)c3cccc(CC(=O)O)c3oc12, the TGI was greater than 100 µM. For CC(NCCC(c1ccccc1)c1ccccc1)c1ccccc1 (stereo not given), the GI50 was 3.09 µM and the TGI was 9.76 µM. For C/C(N=NC(=S)N1CC2CCC(CC2)C1)=C1\C=CC=CN1O, the TGI was greater than 100 µM. O=C(Nc1ccc(Br)cc1F)c1cc(Cl)ccc1O gave a GI50 of 0.899 µM and a TGI greater than 100 µM. Compound S=c1[nH]c(=S)c2cc3ccccc3nc2[nH]1 has a GI50 greater than 100 µM and a TGI greater than 100 µM. In the case of CCC[CH2][Sn]([CH2]CCC)([O]C(=O)c1ccc(OC)c(OC)c1OC)[O][Sn]([CH2]CCC)([CH2]CCC)[O]C(=O)c1ccc(OC)c(OC)c1OC, the GI50 is reported as 1.01 µM and the TGI is reported as 2.17 µM.

What follows are compounds tested on HT29 colon (assay: growth of human tumour cells (NCI), 48 h).
With O=C(Cc1ccc(F)c(Cl)c1)Nc1cc(C2(C(F)(F)F)CC2)nn1CC1CCCCC1 the GI50 was 3.96 µM and the TGI was greater than 15 µM. Work on N#Cc1nn(-c2cc(=O)[nH]c3ccc(Cl)cc23)c(N)c1C#N yielded a GI50 greater than 100 µM and a TGI greater than 100 µM. Work on NC(N)=NCCCC(=O)O yielded a TGI greater than 100 µM. CCN1CCN(c2cc(C)c3cc(NC(=O)c4ccc(OC)c(OC)c4)ccc3n2)CC1 was tested, and the GI50 was 1.31 µM and the TGI was greater than 100 µM. Work on COC(=O)c1c2c(c(C)[n+]([O-])c1C)C(=O)C=C(NCc1ccc(F)cc1)C2=O yielded a GI50 of 0.369 µM. In the case of CCCC(=O)Nc1cn(COC)c(C(=O)N2C[C@@H]3C[C@]34C2=CC(=O)c2[nH]cc(C)c24)n1, the GI50 is reported as 11.2 µM and the TGI is reported as 21.1 µM and 37.7 µM. Compound CNCCOC(=O)/C=C1\CC[C@H]2[C@@H]([C@@H](O)C(=O)[C@@H]3[C@]2(C)CC[C@H](O)[C@]3(C)C(=O)OC)[C@H]1C has a GI50 of 0.443 µM and a TGI of 1.58 µM. Cc1nnc(Nc2ccc(NC(=O)Nc3ccc(Cl)cc3)cc2)c2ccccc12 was tested, and the GI50 was 1.78 µM and the TGI was 3.67 µM. Compound CC(=O)ON1CCCC(P(=O)(OCCSC(=O)C(C)(C)C)OCCSC(=O)C(C)(C)C)C1=O (stereo not given) has a GI50 of 1.28 µM and a TGI greater than 100 µM. Work on C=CCC1(c2ccc(OC)cc2)C=CC(=O)CC1 (stereo not given) yielded a TGI greater than 100 µM. COC(=O)[C@]12CC[C@@H](C)[C@H](C)[C@@H]1C1=CC[C@@H]3[C@@]4(C)C[C@@H](O)[C@H](O)[C@@](C)(CO)C4=CC[C@@]3(C)[C@]1(C)CC2 gave a GI50 of 15.9 µM and a TGI of 33.5 µM. In the case of Cc1nc(N)sc1N=Nc1ccccc1Br, the TGI is reported as 59 µM. NS(=O)(=O)c1ccc(N=Nc2c(O)c(C(=O)O)cc3ccccc23)cc1 gave a TGI greater than 100 µM. In the case of Cc1c(N(C)C)ccc2c(=O)c3cccc(CC(=O)O)c3oc12, the TGI is reported as greater than 100 µM. For CC(NCCC(c1ccccc1)c1ccccc1)c1ccccc1 (stereo not given), the GI50 was 1.72 µM and the TGI was 3.39 µM. In the case of C/C(N=NC(=S)N1CC2CCC(CC2)C1)=C1\C=CC=CN1O, the TGI is reported as greater than 57.9 µM. O=C(Nc1ccc(Br)cc1F)c1cc(Cl)ccc1O gave a GI50 of 3.09 µM and a TGI of 31.5 µM. With S=c1[nH]c(=S)c2cc3ccccc3nc2[nH]1 the GI50 was greater than 100 µM and the TGI was greater than 100 µM. For CCC[CH2][Sn]([CH2]CCC)([O]C(=O)c1ccc(OC)c(OC)c1OC)[O][Sn]([CH2]CCC)([CH2]CCC)[O]C(=O)c1ccc(OC)c(OC)c1OC, the GI50 was 0.831 µM and the TGI was 2.31 µM.

These compounds were tested on MDA-MB-231 breast (assay: growth of human tumour cells (NCI), 48 h).
O=C(Cc1ccc(F)c(Cl)c1)Nc1cc(C2(C(F)(F)F)CC2)nn1CC1CCCCC1 gave a GI50 of 2.82 µM and a TGI of 6.68 µM. N#Cc1nn(-c2cc(=O)[nH]c3ccc(Cl)cc23)c(N)c1C#N was tested, and the GI50 was 89.8 µM and the TGI was greater than 100 µM. Compound NC(N)=NCCCC(=O)O has a TGI greater than 100 µM. CCN1CCN(c2cc(C)c3cc(NC(=O)c4ccc(OC)c(OC)c4)ccc3n2)CC1 gave a GI50 of 11.2 µM and a TGI greater than 100 µM. COC(=O)c1c2c(c(C)[n+]([O-])c1C)C(=O)C=C(NCc1ccc(F)cc1)C2=O gave a GI50 of 0.354 µM and a TGI of 4.46 µM. With CCCC(=O)Nc1cn(COC)c(C(=O)N2C[C@@H]3C[C@]34C2=CC(=O)c2[nH]cc(C)c24)n1 the GI50 was 19.9 µM and the TGI was 27 µM and 51.1 µM. With CNCCOC(=O)/C=C1\CC[C@H]2[C@@H]([C@@H](O)C(=O)[C@@H]3[C@]2(C)CC[C@H](O)[C@]3(C)C(=O)OC)[C@H]1C the GI50 was 1.77 µM and the TGI was 5.91 µM. Cc1nnc(Nc2ccc(NC(=O)Nc3ccc(Cl)cc3)cc2)c2ccccc12 showed a GI50 of 2.38 µM and a TGI of 5.94 µM. In the case of CC(=O)ON1CCCC(P(=O)(OCCSC(=O)C(C)(C)C)OCCSC(=O)C(C)(C)C)C1=O (stereo not given), the GI50 is reported as 1.34 µM and the TGI is reported as 87.8 µM.
